These results are taken from ChEMBL document CHEMBL1158178, “Study on the binding interaction between carnitine optical isomer and bovine serum albumin” (Eur J Med Chem, 2008).

In data set [1] the target is T1, Albumin (Bos taurus, UniProt P02769). Put plainly: Binding affinity to bovine serum albumin by fluorescence spectroscopy in presence of Fe3+. The class given is ADME. Particulars: cattle, isolated protein.
In data set [2] the target is T1, Albumin. Put plainly: Binding affinity to bovine serum albumin by fluorescence spectroscopy. Format: ADME. Particulars: cattle, isolated protein.

T1 sequence (P02769 whole entry): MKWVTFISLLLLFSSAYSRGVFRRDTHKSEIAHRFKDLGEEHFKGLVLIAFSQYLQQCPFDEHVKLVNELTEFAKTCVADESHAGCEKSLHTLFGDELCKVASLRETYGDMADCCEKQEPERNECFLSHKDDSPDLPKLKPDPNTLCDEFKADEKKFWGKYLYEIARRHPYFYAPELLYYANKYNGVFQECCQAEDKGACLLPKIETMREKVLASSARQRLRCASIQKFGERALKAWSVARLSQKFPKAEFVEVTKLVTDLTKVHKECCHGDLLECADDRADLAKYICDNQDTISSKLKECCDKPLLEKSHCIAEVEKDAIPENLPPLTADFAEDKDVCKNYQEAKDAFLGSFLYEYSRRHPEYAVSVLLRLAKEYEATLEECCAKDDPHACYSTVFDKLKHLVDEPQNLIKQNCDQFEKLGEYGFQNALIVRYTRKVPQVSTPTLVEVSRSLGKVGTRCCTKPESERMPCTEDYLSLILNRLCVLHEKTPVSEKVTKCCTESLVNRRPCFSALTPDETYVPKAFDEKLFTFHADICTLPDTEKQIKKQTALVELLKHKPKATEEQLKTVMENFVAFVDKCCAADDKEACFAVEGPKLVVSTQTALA

For the compound `C[N+](C)(C)C[C@H](O)CC(=O)[O-]` [LEVOCARNITINE], the K turned out to be 2.97 ×10⁴ L/mol at Albumin [1] and 2.27 ×10⁴ L/mol on Albumin [2].

Regarding `C[N+](C)(C)C[C@@H](O)CC(=O)[O-]` [D-CARNITINE], the K was 3.18 ×10⁴ L/mol on Albumin [1] and 2.15 ×10⁴ L/mol at Albumin [2].
